From US8039493B2, “Biaryl sulfonamide derivatives” (Hoffmann-La Roche Inc., priority 2008, dated 2011)

Assays:
human LXR beta = biological target: T1, human LXR beta (Homo sapiens, UniProt P55055); test: Radioligand binding assay (scintillation proximity), LXR beta-LBD; conditions: LXR beta-LBD on SPA beads, read-out: LXRbeta Binding IC50
T1 construct: human LXR beta (aa 155 to 460); made in house; host or cells: E. coli BL21 (pLysS)
T1 sequence (P55055 155-460): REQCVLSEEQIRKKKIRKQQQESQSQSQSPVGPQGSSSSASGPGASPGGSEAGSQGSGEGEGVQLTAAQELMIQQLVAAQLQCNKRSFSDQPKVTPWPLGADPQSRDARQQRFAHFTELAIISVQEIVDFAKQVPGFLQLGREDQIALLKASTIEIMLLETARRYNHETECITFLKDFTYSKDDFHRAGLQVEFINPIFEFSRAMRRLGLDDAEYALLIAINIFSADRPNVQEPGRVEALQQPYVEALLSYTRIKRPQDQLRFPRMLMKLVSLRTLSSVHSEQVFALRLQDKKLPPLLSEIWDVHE
Experimental: (§1) The following tests were carried out in order to determine the activity of the compounds of the present invention. […] Mammalian expression vectors were constructed to express full-length human LXR alpha and LXR beta. […] To accomplish this, the portions of the sequences encoding the LBDs were amplified from the full-length clones by PCR and then subcloned into the plasmid vectors.
(§2) Induction, expression, and purification of LBD proteins were performed in E. coli strain BL21 (pLysS) cells by standard methods (Ref: Current Protocols in Molecular Biology, Wiley Press, edited by Ausubel et al).
(§3) Radioligand Binding Assay
(§4) LXR alpha and LXR beta receptor binding were assayed in buffer consisting of 50 mM HEPES, pH 7.4, 10 mM NaCl, 5 mM MgCl2. For each 96-well reaction, 500 ng of LXRα-LBD or 700 ng of LXR beta-LBD proteins were bound to 80 μg or 40 μg SPA beads respectively, in a final volume of 50 μl by shaking. The resulting slurry was incubated for 1 h at RT and centrifuged for 2 min at 1300×g. The supernatant containing unbound protein was removed, and the semi-dry pellet containing the receptor-coated beads was re-suspended in 50 μl of buffer. Radioligand (eg. 100,000 dpm of (N-(2,2,2-trifluoroethyl)-N-[4-(2,2,2-trifluoro-1-hydroxy-1-trifluoromethylethyl)-phenyl]-benzenesulfonamide)) was added, and the reaction incubated at RT for 1 h in the presence of test compounds, and then scintillation proximity counting was performed. All binding assays were performed in 96-well plates and the amount of bound ligand was measured on a Packard TopCount using OptiPlates (Packard). Dose response curves were measured within a range of concentration from 10^−10 M to 10^−4 M.

human LXR alpha = biological target: T2, human LXR alpha (Homo sapiens, UniProt Q13133); test: Radioligand binding assay (scintillation proximity), LXRα-LBD; conditions: LXRα-LBD on SPA beads, read-out: LXRalpha Binding IC50
T2 construct: human LXR alpha (aa 164 to 447); made in house; host or cells: E. coli BL21 (pLysS)
T2 sequence (Q13133 164-447): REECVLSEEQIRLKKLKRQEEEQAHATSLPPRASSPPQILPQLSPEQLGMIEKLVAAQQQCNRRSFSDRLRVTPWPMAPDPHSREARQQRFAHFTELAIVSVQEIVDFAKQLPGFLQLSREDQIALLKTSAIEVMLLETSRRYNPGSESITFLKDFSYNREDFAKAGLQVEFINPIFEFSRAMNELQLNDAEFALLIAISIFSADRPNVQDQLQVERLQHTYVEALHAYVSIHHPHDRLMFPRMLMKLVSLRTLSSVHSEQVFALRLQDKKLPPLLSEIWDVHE
Experimental: as §1, §2, §3, §4

IC50 (human LXR beta) [nM]	IC50 (human LXR alpha) [nM]	Structure (SMILES)
255	2800	CC(C)S(=O)(=O)N(Cc1ccc(F)cc1)Cc1cccc(-c2cccc(S(C)(=O)=O)c2)c1 [Example 53, Propane-2-sulfonic acid (4-fluoro-benzyl)-(3′-methanesulfonyl-biphenyl-3-ylmethyl)-amide]
7.4	84.5	CC(C)CN(Cc1cc(-c2cccc(S(N)(=O)=O)c2)cs1)S(=O)(=O)c1ccccc1Cl [Example 54, 2-Chloro-N-isobutyl-N-[4-(3-aminosulfonyl-phenyl)-thiophen-2-ylmethyl]-benzenesulfonamide]
83	2530	CC(C)CN(Cc1cc(-c2cncc(S(C)(=O)=O)c2)cs1)S(=O)(=O)c1ccccc1Cl [Example 55, 2-Chloro-N-isobutyl-N-[4-(5-methanesulfonyl-pyridin-3-yl)-thiophen-2-ylmethyl]-benzenesulfonamide]
39100	17700	CC(C)CN(Cc1cc(-c2cccc(S(=O)(=O)NC(C)(C)C)c2)cs1)S(=O)(=O)c1ccccc1Cl [Example 56, 2-Chloro-N-isobutyl-N-[4-(3-tert-butylaminosulfonyl-phenyl)-thiophen-2-ylmethyl]-benzenesulfonamide]
1340	31700	CC(C)CN(Cc1ccc(-c2cccc(S(C)(=O)=O)c2)s1)S(=O)(=O)CC1CCCCC1 [Example 58, C-Cyclohexyl-N-isobutyl-N-[5-(3-methanesulfonyl-phenyl)-thiophen-2-ylmethyl]-methanesulfonamide]
